tested on: RS4; 11 with G101V mutation; assay: In vitro anti-proliferation assay (ATPlite luminescence) in BCL-2-dependent ALL cell line RS4;11 with G101V mutation; assay type: cell-based; conditions: Homo sapiens, RS4-11, 72 h; read-out: RS411-G101V IC50
Outline: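 RS4;11 G101V cells at about 1×10^4 per well were exposed to a range of compound concentrations for about 72 h in medium with 10% FBS. Cellular ATP was measured by ATPlite luminescence after lysis, and IC50 was derived from the dose-response.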

| IC50 [nM] | SMILES |
| --- | --- |
| 67.2 | CC(C)Oc1ccccc1[C@@H]1CN([C@H]2CCCOC2)CCN1C1CC2(CCN(c3ccc(C(=O)NS(=O)(=O)c4cc5c(c([N+](=O)[O-])c4)N[C@H](C4CCOCC4)CO5)c(N4c5cc6cc[nH]c6nc5O[C@H]5COCC[C@@H]54)c3)CC2)C1 [Example 175, 4-(2-((R)-2-(2-isopropoxyphenyl)-4-((S)-tetrahydro-2H-pyran-3-yl)piperazin-1-yl)-7-azaspiro[3.5]nonan-7-yl)-N-(((R)-5-nitro-3-(tetrahydro-2H-pyran-4-yl)-3,4-dihydro-2H-benzo[b][1,4]oxazin-7-yl)sulfonyl)-2-((5aS,9aR)-6,7,9,9a-tetrahydro-1H-pyrano[3,4-b]pyrrolo[3′,2′:5,6]pyrido[3,2-e][1,4]oxazin-5(5aH)-yl)benzamide] |
| 22.2 | CC(C)Oc1ccccc1[C@@H]1CN(CC2CCOCC2)CCN1C1CC2(CCN(c3ccc(C(=O)NS(=O)(=O)c4cc5c(c([N+](=O)[O-])c4)N[C@H](C4CCOCC4)CO5)c(N4c5cc6cc[nH]c6nc5O[C@H]5COCC[C@@H]54)c3)CC2)C1 [Example 176, 4-(2-((R)-2-(2-isopropoxyphenyl)-4-((tetrahydro-2H-pyran-4-yl)methyl)piperazin-1-yl)-7-azaspiro[3.5]nonan-7-yl)-N-(((R)-5-nitro-3-(tetrahydro-2H-pyran-4-yl)-3,4-dihydro-2H-benzo[b][1,4]oxazin-7-yl)sulfonyl)-2-((5aS,9aR)-6,7,9,9a-tetrahydro-1H-pyrano[3,4-b]pyrrolo[3′,2′:5,6]pyrido[3,2-e][1,4]oxazin-5(5aH)-yl)benzamide] |
| 40.9 | Cc1ccccc1[C@@H]1CN([C@@H]2CCCOC2)CCN1C1CC2(CCN(c3ccc(C(=O)NS(=O)(=O)c4cc5c(c([N+](=O)[O-])c4)N[C@H](C4CCOCC4)CO5)c(N4c5cc6cc[nH]c6nc5O[C@H]5COCC[C@@H]54)c3)CC2)C1 [Example 178, N—(((R)-5-nitro-3-(tetrahydro-2H-pyran-4-yl)-3,4-dihydro-2H-benzo[b][1,4]oxazin-7-yl)sulfonyl)-2-((5aS,9aR)-6,7,9,9a-tetrahydro-1H-pyrano[3,4-b]pyrrolo[3′,2′:5,6]pyrido[3,2-e][1,4]oxazin-5(5aH)-yl)-4-(2-((R)-4-((R)-tetrahydro-2H-pyran-3-yl)-2-(o-tolyl)piperazin-1-yl)-7-azaspiro[3.5]nonan-7-yl)benzamide] |
| 31.2 | Cc1ccccc1[C@@H]1CN([C@H]2CCCOC2)CCN1C1CC2(CCN(c3ccc(C(=O)NS(=O)(=O)c4cc5c(c([N+](=O)[O-])c4)N[C@H](C4CCOCC4)CO5)c(N4c5cc6cc[nH]c6nc5O[C@H]5COCC[C@@H]54)c3)CC2)C1 [Example 179, N—(((R)-5-nitro-3-(tetrahydro-2H-pyran-4-yl)-3,4-dihydro-2H-benzo[b][1,4]oxazin-7-yl)sulfonyl)-2-((5aS,9aR)-6,7,9,9a-tetrahydro-1H-pyrano[3,4-b]pyrrolo[3′,2′:5,6]pyrido[3,2-e][1,4]oxazin-5(5aH)-yl)-4-(2-((R)-4-((S)-tetrahydro-2H-pyran-3-yl)-2-(o-tolyl)piperazin-1-yl)-7-azaspiro[3.5]nonan-7-yl)benzamide] |

| SMILES | IC50 [nM] |
| --- | --- |
| COc1cc(CN2CCN(C3CC4(CCN(c5ccc(C(=O)NS(=O)(=O)c6cc7c(c([N+](=O)[O-])c6)N[C@H](C6CCOCC6)CO7)c(N6c7cc8cc[nH]c8nc7O[C@H]7COCC[C@@H]76)c5)CC4)C3)[C@H](c3ccccc3OC(C)C)C2)cnc1OC [Example 177, 4-(2-((R)-4-((5,6-dimethoxypyridin-3-yl)methyl)-2-(2-isopropoxyphenyl)piperazin-1-yl)-7-azaspiro[3.5]nonan-7-yl)-N-(((R)-5-nitro-3-(tetrahydro-2H-pyran-4-yl)-3,4-dihydro-2H-benzo[b][1,4]oxazin-7-yl)sulfonyl)-2-((5aS,9aR)-6,7,9,9a-tetrahydro-1H-pyrano[3,4-b]pyrrolo[3′,2′:5,6]pyrido[3,2-e][1,4]oxazin-5(5aH)-yl)benzamide] | 4 |

Reference: patent US20250114374A1, “BCL-2 INHIBITORS” (Newave Pharmaceutical Inc., priority 2021, published 2025)
